# Data taken from US8053424B2, “Composition and method of treating hearing loss” (The Regents of the University of Michigan, priority 2006, dated 2011).
# System: guinea pigs
# Assay: Threshold shift by auditory brainstem response (ABR) testing after 120 dB SPL octave band noise
# Format: in vivo, guinea pigs (NIH outbred strain)
# Details: FIG. 1-3 comparison between treatments
# Experimental: In guinea pig studies, hearing loss and the efficacy of the composition of the subject invention for treating hearing loss is measured as an average difference in threshold shift from baseline threshold sensitivity at 4, 8, and 16 kHz, as compared to an untreated control, after exposure to 120 decibel SPL Octave Band Noise centered at 4 kHz for five hours.
# To obtain those results, the composition is typically injected each day, twice a day, for three days prior to exposure to the noise and injected again each day for at least five days, typically up to ten days, subsequent to the exposure to the noise. The threshold shift is measured 10 days after exposure to the noise using auditory brainstem response (ABR) testing.
# In order to determine efficacy of the composition of the present invention in treating hearing loss, baseline threshold sensitivity of the guinea pigs is measured binaurally using auditory brainstem response testing at 4, 8, and 16 kHz.
# For Example 1, the guinea pigs are first treated each day, twice a day, for three days prior to exposure to 120-dB SPL Octave Band Noise centered at 4 kHz for 5 hours. The noise causes trauma to middle or inner ears of the guinea pigs and is sufficient to cause permanent threshold shift, i.e., permanent hearing loss. […] Ten days after the noise exposure, auditory sensitivity is measured using ABR. […]
structure (smiles),measurement,value
Cc1c(C)c2c(c(C)c1O)CCC(C)(C(=O)O)O2 (centres unmarked) [Trolox®],"effect in minimizing threshold shift (additive effect), in words",do not exhibit the same additive effect
"O=C([O-])c1ccccc1O.[Na+] [salicylate, sodium salicylate]","effect in minimizing threshold shift (additive effect), in words",do not exhibit the same additive effect
